The record followed here is publication PMC9029323, “In Silico Identification of Novel Inhibitors Targeting the Homodimeric Interface of Superoxide Dismutase from the Dental Pathogen Streptococcus mutans” (Antioxidants, 2022).

One experiment deals with cambialistic StSOD (Streptococcus thermophilus, UniProt Q5M4Z1). The experiment is described as follows: SOD activity assay with StSOD. It is filed as biochemical.
Experiment [1] has as its system Streptococcus mutans ATCC-700610. The experiment is described as follows: Crystal violet staining biofilm biomass assay. It counts as cell-based. Particulars: 24 h. On the procedure: The bacterial strain used for antimicrobial assays was Streptococcus mutans ATCC-700610. The strain was stored in 15% (v/v) glycerol stocks at −80 °C. Before each experiment, cells were subcultured from the stocks into Trypticase Soy Agar (TSA, cat. PA-254051.06) with 5% Sheep Blood (Becton Dickinson, Sparks, NV, USA) plates at 37 °C in 5% CO2 atmosphere for 48 h.
The crystal violet (CV) staining method was used to measure biofilm biomass formed in flat-bottomed 96-well microplates in the presence of ALS-31 or ALS-31-9, as described by Stepanović et al., with some modifications. A bacterial suspension of approximately 1.5 × 10^6 CFU/mL in BHI supplemented with 1% (w/v) glucose was prepared, and 100-µL aliquots of this suspension were incubated with 100 µL of serial dilutions of each compound. The microplate was incubated at 37 °C for 24 h, after which the non-adherent cells were gently aspirated and the wells gently rinsed with PBS (Sigma–Aldrich). The adhered biofilm was dried at 60 °C for 30 min and subsequently stained with 0.1% (w/v) crystal violet solution for 30 min. After washing with PBS and solubilization with absolute ethanol to release the dye from the biofilm, the plate was read at 570 nm in a spectrophotometer. The absorbance recorded was related to the amount of biofilm produced. The reduction in the mass of the biofilm was expressed as a percentage by using the formula [(Ac-At)/Ac] × 100, where Ac is the OD570 for the control wells and At is the OD570 in the presence of the tested compound.

The next experiment has as its target T1, SmSOD (Streptococcus mutans serotype c, UniProt P09738).
T1 construct: His-tail; made in house; host or cells: Escherichia coli BL21(DE3), vector vSmSOD (pET-22b(+)-derived)
Kind of experiment: SOD activity assay (inhibition of cytochrome c reduction, xanthine/xanthine oxidase method) with SmSOD. It is filed as biochemical.

Experiment [2] has as its target T2, Fe-SOD from Escherichia coli (Escherichia coli, UniProt P0AGD3).
T2 construct: purchased Sigma–Aldrich SRP6107
The experiment is described as follows: SOD activity assay with Fe-SOD. It counts as biochemical.
Description: (§1) Purified recombinant forms of SmSOD and StSOD were obtained through a heterologous expression system constituted by the Escherichia coli BL21(DE3) strain transformed with appropriate expression vectors, vSmSOD [11] or vStSOD [12]. These pET-22b(+)- or pET-28b(+)-derived plasmids led to the production of recombinant forms of SmSOD or StSOD, respectively fused to a His-tail, useful for their one-step purification by affinity chromatography, as previously described [11, 12]. The improvement of Mn uptake by SmSOD was realised as previously described [11, 12, 13]. The resulting metal (Fe and Mn) content in the cambialistic enzyme was determined by graphite furnace atomic absorption spectrometry with a Shimadzu ACS-6100 auto sampler [46]. Fe-SOD from Escherichia coli (cat. SRP6107) and the Cu/Zn-SOD from bovine erythrocytes (cat. 574594) were purchased from Sigma–Aldrich. A recombinant form of the eukaryal Mn–SOD from rat mitochondria was prepared as previously described [19]. Protein concentration was determined by the Bradford method, using bovine serum albumin as standard [47]. […] One unit of SOD activity was defined as the amount of enzyme that caused 50% inhibition of cytochrome c reduction.

“Also recorded” adds a separate entry of the source. Read-outs that look alike come from different tables or passages of the source.

T1 sequence (P09738 2-203): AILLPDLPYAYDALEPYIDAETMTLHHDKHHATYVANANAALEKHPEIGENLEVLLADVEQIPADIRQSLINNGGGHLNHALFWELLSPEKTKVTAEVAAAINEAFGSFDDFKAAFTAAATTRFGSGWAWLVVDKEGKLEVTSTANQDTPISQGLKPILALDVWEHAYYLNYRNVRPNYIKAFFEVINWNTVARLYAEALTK
cambialistic StSOD, sequence (Q5M4Z1 entry or part of it): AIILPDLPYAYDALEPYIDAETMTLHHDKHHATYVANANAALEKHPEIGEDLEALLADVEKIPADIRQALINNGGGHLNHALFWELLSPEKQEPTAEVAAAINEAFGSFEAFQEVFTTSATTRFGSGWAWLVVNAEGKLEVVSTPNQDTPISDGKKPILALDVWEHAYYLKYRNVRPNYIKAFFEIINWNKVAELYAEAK
T2 sequence (P0AGD3 2-193): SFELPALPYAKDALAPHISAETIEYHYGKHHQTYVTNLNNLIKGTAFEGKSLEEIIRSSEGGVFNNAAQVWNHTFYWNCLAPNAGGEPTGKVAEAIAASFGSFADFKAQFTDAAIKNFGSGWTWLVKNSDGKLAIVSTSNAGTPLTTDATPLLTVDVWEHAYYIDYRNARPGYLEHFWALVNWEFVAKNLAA
Description for SmSOD: as §1
Description for cambialistic StSOD: as §1

Broadly, the inhibition is how much of the control response was suppressed. As to `CSCCC(NC(=O)COc1ccc2c3c(c(=O)oc2c1)CCCC3)C(=O)NCCC(=O)O` (stereo not shown) [ALS-31], the IC50 turned out to be 218 ± 50 µM at cambialistic StSOD; 159 µM at SmSOD (Mn-basal SmSOD, read-out: IC50 (concentration leading to 50% inhibition of SmSOD activity)); 262 ± 11 µM on SmSOD (Mn-enriched SmSOD, basal Mn content 2.7-fold improved after metal exchange, read-out: IC50 in the Mn-enriched enzyme); 123 ± 20 µM in experiment [2]. For the same molecule, in experiment [1] (Streptococcus mutans, ATCC700610, 52.5 µM, read-out: inhibition of biofilm biomass formation), the inhibition at 52.5 µM came to 68.2%. The “effect on biofilm formation” value in experiment [1] (serial dilutions from 52.5 µM) is on record as “no effects”. For the same molecule, the remaining activity at 20 µM at SmSOD (20 µM compound, activity of SmSOD in the absence of compound equal to 100, read-out: Residual SOD Activity (%) in the Presence of [Compound]) turned out to be 92%. Besides, on SmSOD (50 µM compound, activity of SmSOD in the absence of compound equal to 100, Table 1, read-out: Residual SOD Activity (%) in the Presence of [Compound]), the remaining activity at 50 µM was determined as 71%. In addition, the remaining activity at 100 µM at SmSOD (read-out: Residual SOD Activity (%) in the Presence of [Compound]) was determined as 56%. Also, the “effect on SmSOD activity (in words)” value at SmSOD (screening concentrations or inhibition profile up to 300 µM) was “dose-dependent reduction; also recorded: evident dose-dependent inhibition”.
